Reference: US9446127B2, “Compositions including androgen receptor degradation (ARD) enhancers and methods of prophylactic or therapeutic treatment of skin disorders and hair loss” (AndroScience Corporation, priority 2007, dated 2016)

What was measured:
LNCaP cells = test: LNCaP cell growth assay (cell count); assay type: cell-based, human; details: 5 μM
Protocol: LNCaP cells express an endogenous mutant AR that is found in prostate cancer patients. This clinically relevant cell model was used to study ASC-J9's effect in suppressing prostate cancer cell growth. Cells were plated, at a density of approximate 6.5×10^4 cells/well, into 6-well tissue culture dishes. Two days later, the complete medium was aspired and 10% charcoal/dextran-treated (hormone depleted) serum-containing medium was added. Test compound, ASC-J9 was then added to the medium at a final concentration of 5 μM with or without 1 nM of DHT. For vehicle control, the same amount of DMSO was added into the medium. For the subsequent 5 days, the medium was aspired once per day, and replaced with fresh medium containing test compound and/or DHT. At designated times, a portion of cells was harvested by trypsinization, and cell count was performed using a hemacytometer.

sebaceous glands = test: Reduction of sebaceous glands in Fuzzy rats, topical cream; assay type: in vivo
Protocol: Topical creams were prepared as later described in EXAMPLE 12. […] The test or control creams were applied using a cotton swab to the dorsal skin of the animal, once daily, over a period of 8 weeks. Animals were then sacrificed and skin samples collected for microscopic examination. Commercial hair remover was applied to the dorsal surface of the euthanized animals. After 5 minutes, the hair remover and hairs were removed with a tissue. The area was thoroughly cleaned with 75% isopropyl alcohol. A 4-millimeter skin punch was used to remove skin tissue samples, which were incubated for 2 to 3 hours in a ethylenediaminetetraacetate (EDTA, 17 millimolar), sodium phosphate (0.1 molar, pH 7.4) solution at 37 degrees Celsius. The epidermis was carefully separated from the dermis and stored in 10% phosphate-buffered formalin. Prior to microscopic examination, the samples were mounted on glass slides. Areas of well-preserved glandular lobules were selected for microscopic imaging. Edges of the glandular lobes were traced and the areas of the traced lobes obtained with Image J software (National Institutes of Health).

[1] = target: T1, wild type androgen receptor (GFPAR) (Homo sapiens, UniProt P10275); test: Fluorescence microscopy of COS-1 cells transfected with GFPAR; assay type: cell-based; details: COS-1, 5 micromolar
T1 construct: GFP (green fluorescent protein); expressed in transfected cells; host or cells: COS-1 (monkey kidney)
T1 sequence (P10275 1-920): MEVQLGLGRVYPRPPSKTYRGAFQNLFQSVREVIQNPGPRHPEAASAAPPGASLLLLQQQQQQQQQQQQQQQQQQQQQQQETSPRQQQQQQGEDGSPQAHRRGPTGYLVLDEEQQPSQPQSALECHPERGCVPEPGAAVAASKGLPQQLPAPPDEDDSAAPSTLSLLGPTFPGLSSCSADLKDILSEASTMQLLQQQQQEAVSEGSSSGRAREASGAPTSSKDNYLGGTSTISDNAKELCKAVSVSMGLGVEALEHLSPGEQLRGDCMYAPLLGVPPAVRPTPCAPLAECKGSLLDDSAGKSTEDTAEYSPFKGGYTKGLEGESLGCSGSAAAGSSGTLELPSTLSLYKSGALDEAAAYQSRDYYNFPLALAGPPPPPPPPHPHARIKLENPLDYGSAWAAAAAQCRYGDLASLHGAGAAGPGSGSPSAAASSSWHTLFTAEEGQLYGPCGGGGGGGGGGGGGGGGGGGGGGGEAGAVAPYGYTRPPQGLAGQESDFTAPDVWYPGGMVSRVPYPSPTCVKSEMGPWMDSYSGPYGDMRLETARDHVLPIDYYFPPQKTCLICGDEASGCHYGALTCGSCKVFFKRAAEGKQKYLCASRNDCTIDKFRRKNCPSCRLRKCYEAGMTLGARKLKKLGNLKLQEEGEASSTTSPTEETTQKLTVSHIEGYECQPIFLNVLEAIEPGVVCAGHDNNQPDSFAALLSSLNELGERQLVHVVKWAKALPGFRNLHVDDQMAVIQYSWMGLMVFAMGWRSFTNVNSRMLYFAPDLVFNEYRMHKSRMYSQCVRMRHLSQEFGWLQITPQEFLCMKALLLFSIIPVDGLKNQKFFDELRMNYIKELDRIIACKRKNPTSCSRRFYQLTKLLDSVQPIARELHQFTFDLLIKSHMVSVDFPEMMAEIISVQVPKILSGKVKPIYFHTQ
Protocol: Monkey kidney COS-1 cells were plated at a density of 3×10^4 cells per 0.5-milliliter volume onto alcohol-cleaned and sterilized cover slips placed in 35-millimeter suspension culture dishes containing Dulbecco's modified Eagle's (DME) medium containing 10% FBS. The cells were transfected with plasmids containing the wild type AR (GFPAR) or poly Q49 (plasmid GFPARQ49) mutant androgen receptor and green fluorescent protein (GFP) as a reporter. For each coverslip, 12.3 microliters SuperFect was added to 3.075 micrograms plasmid in 102.5 microliters DME medium (to give a 1:4 ratio of DNA to SuperFect reagent); the mixture was vortexed briefly, and the complex allowed to form over 15 minutes. Each mixture then received 897 microliters CD/DME and was mixed gently. The resulting 1-milliliter volumes were added to the dishes containing the coverslips (final plasmid concentration was […] per dish). Cells were allowed to incubate with the transfection solution for 5 hours, then the medium was changed to fresh 1.5 milliliters CD/DME medium with either vehicle (DMSO) only added or ASC-J9 (final concentration 5 micromolar). […] The coverslips were air-dried, mounted on slides with a glycerol-based mounting agent, and stored at 4 degrees Celsius if necessary prior to observation with fluorescence microscopy. […]

COc1ccc(C=CC(=O)C=C(O)C=Cc2ccc(OC)c(OC)c2)cc1OC [ASC-J9, 5-hydroxy-1,7-bis(3,4-dimethoxyphenyl)-1,4,6-heptatrien-3-one]
LNCaP cell growth in the presence of DHT (LNCaP cells; 1 nM DHT, 5 days): good potency to decrease LNCaP cell growth
viable cells (LNCaP cells; end of 5-day incubation): only a minimal number of viable cells
cell number per well (LNCaP cells; without DHT, starting from Day 2, vs vehicle control): marked decrease in cell number
size of ducts of sebaceous glands (sebaceous glands; male Fuzzy rats, topical (FIG. 10E), comparable to castration, better than flutamide): significantly reduced the size of ducts
size of the sebaceous gland (sebaceous glands; male rats, topical, 200 μM (FIG. 10A-C), not to the extent caused by castration): significant reduction in the size of the sebaceous gland
time to reduction of brown skin color and bands of sebaceous glands (sebaceous glands; topical cream 25 micromolar, once daily): 4-5 weeks
size of the sebaceous glandular lobe (sebaceous glands; topical, various concentrations (FIG. 10D), less than castration, better than flutamide): significant reduction in the size of the sebaceous glandular lobe
GFPAR fluorescence (expression of wild type AR) [1]: reduces (or degrades) the expression of AR
